The text below walks through data of US20180119123A1, “CRISPR/CAS-RELATED METHODS AND COMPOSITIONS FOR TREATING HIV INFECTION AND AIDS” (EDITAS MEDICINE, INC., priority 2015, published 2018).

The subject of series [1] is human mobilized peripheral blood CD34^+ HSCs. The experiment in a line: Fold change in CD34+ cell number (trypan blue count) 96 hours after Nucleofection. Type of series: cell-based. The note with it: Nucleofection with wild type Cas9 and CCR5-U43 gRNA plasmid DNA + vehicle treatment (no UM171). The procedure:
(§1) Human CD34^+ HSCs cells from mobilized peripheral blood (AllCells) were thawed into StemSpan Serum-Free Expansion Medium (SFEM™, StemCell Technologies) containing 100 ng/mL each of the following cytokines: human stem cell factor (SCF), thrombopoietin (TPO), and flt-3 ligand (FL) (all from Peprotech). Cells were grown for 3 days in a humidified incubator and 5% CO2 20% O2. […] The published use of UM171 involved prolonged exposure of HSCs to the small molecule for ex vivo expansion of HSCs. In the current experiment, HSCs were exposed to UM171 for 2 hours before and 24 hours after delivery of Cas9 and gRNA plasmid DNA. This UM171 treatment protocol was based on pilot studies performed by the inventors that indicated acute pre-treatment with UM171 before lentivirus vector mediated gene delivery improved HSC viability compared to HSCs treated with vehicle (dimethylsulfoxide, DMSO, Sigma) alone. […] At 96 hours after Nucleofection™, CD34^+ cells were counted for by trypan blue exclusion and divided into 3 portions for the following analyses: a) flow cytometry analysis for assessment of viability by co-staining with 7-Aminoactinomycin-D (7-AAD) and allophycocyanin (APC)-conjugated Annexin-V antibody (ebioscience); b) flow cytometry analysis for maintenance of HSC phenotype (after co-staining with phycoerythrin (PE)-conjugated anti-human CD34 antibody and fluorescein isothicyanate (FITC)-conjugated anti-human CD90, both from BD Bioscience; c) hematopoietic colony forming cell (CFC) analysis by plating 1500 cells in semi-solid methylcellulose based Methocult medium (StemCell Technologies) that supports differentiation of erythroid and myeloid blood cell colonies from HSCs and serves as a surrogate assay to evaluate HSC multipotency and differentiation potential ex vivo; d) genomic DNA analysis for detection of editing at the CCR5 locus. […]

Another series concerns CD34^+ HSCs. The experiment in a line: Hematopoietic colony forming cell (CFC) assay in Methocult medium. Type of series: cell-based, human. The note with it: Nucleofection with wild-type Cas9 and CCR5-U43 gRNA plasmid DNA + vehicle (no UM171); two weeks. As for the experimental part: Human CD34^+ HSCs cells from mobilized peripheral blood (AllCells) were thawed into StemSpan Serum-Free Expansion Medium (SFEM™, StemCell Technologies) containing 100 ng/mL each of the following cytokines: human stem cell factor (SCF), thrombopoietin (TPO), and flt-3 ligand (FL) (all from Peprotech). Cells were grown for 3 days in a humidified incubator and 5% CO2 20% O2. […] The published use of UM171 involved prolonged exposure of HSCs to the small molecule for ex vivo expansion of HSCs. In the current experiment, HSCs were exposed to UM171 for 2 hours before and 24 hours after delivery of Cas9 and gRNA plasmid DNA. This UM171 treatment protocol was based on pilot studies performed by the inventors that indicated acute pre-treatment with UM171 before lentivirus vector mediated gene delivery improved HSC viability compared to HSCs treated with vehicle (dimethylsulfoxide, DMSO, Sigma) alone. After the 2-hour pretreatment with UM171, 1 million […] HSCs were Nucleofected™ with the Amaxa™ 4D Nucleofector™ device (Lonza), Program EO100 using components of the P3 Primary Cell 4D-Nucleofector Kit™ (Lonza) according to the manufacturer's instructions. Briefly, one million cells were suspended in Nucleofector™ solution and the following amounts of plasmid DNA were added to the cell suspension: 1250 ng plasmid expressing CCR5 gRNA (CCR5-U43) from the human U6 promoter and 3750 ng plasmid expressing wild-type S. pyogenes Cas 9 transcriptionally regulated by the CMV promoter. After Nucleofection™, cells were plated into Stemspan-SFEM™ supplemented with SCF, TPO, FL and 40 nM UM171. After overnight incubation, HSCs were plated in Stemspan-SFEM™ plus cytokines without UM171. At 96 hours after Nucleofection™, CD34^+ cells were counted for by trypan blue exclusion and divided into 3 portions for the following analyses: a) flow cytometry analysis for assessment of viability by co-staining with 7-Aminoactinomycin-D (7-AAD) and allophycocyanin (APC)-conjugated Annexin-V antibody (ebioscience); b) flow cytometry analysis for maintenance of HSC phenotype (after co-staining with phycoerythrin (PE)-conjugated anti-human CD34 antibody and fluorescein isothicyanate (FITC)-conjugated anti-human CD90, both from BD Bioscience; c) hematopoietic colony forming cell (CFC) analysis by plating 1500 cells in semi-solid methylcellulose based Methocult medium (StemCell Technologies) that supports differentiation of erythroid and myeloid blood cell colonies from HSCs and serves as a surrogate assay to evaluate HSC multipotency and differentiation potential ex vivo; d) genomic DNA analysis for detection of editing at the CCR5 locus. Genomic DNA was extracted from HSCs 96 hours after Nucleofection™, and CCR5 locus-specific PCR reactions were performed.
To evaluate maintenance of HSC potency and differentiation potential, two weeks after plating CD34^+ HSCs in CFC assays, hematopoietic activity was quantified based on scoring the HSC progeny by enumerating the total number of hematopoietic colony forming units (CFU) and the frequencies of specific blood cell phenotypes, including: mixed myeloid/erythroid (Granulocyte-erythroid-monocyte macrophage, CFU-GEMM), myeloid (CFU-macrophage (M), granulocyte-macrophage (CFU-GM)) and erythroid (CFU-E) colonies. CD34^+ HSCs that were Nucleofected™ after UM171 pre-treatment maintained CFC potential compared to un-Nucleofected™ HSCs (Table 12). In contrast, CD34^+ HSCs that were Nucleofected™ without UM171 pre-treatment had reduced CFC potential (lower total CFC counts and reduced numbers of mixed-phenotype colonies (CFU-GEMM) and erythroid colonies (CFU-E)) in comparison to un-Nucleofected™ CD34^+ HSCs.
Human CD34^+ HSCs cells from mobilized peripheral blood (AllCells) were thawed into StemSpan Serum-Free Expansion Medium (SFEM, StemCell Technologies) containing 100 ng/mL each of the following cytokines: human stem cell factor (SCF), thrombopoietin (TPO), and flt-3 ligand (FL) (all from Peprotech). […]

Series [2] relates to human mobilized peripheral blood CD34^+ HSCs. Description: Maintenance of HSC phenotype (CD34/CD90 co-staining, flow cytometry). Type of series: cell-based. The settings on record: Cas9 and CCR5 gRNA plasmids after pre-treatment with UM171; 96 hours. The procedure:
Human CD34^+ HSCs cells from mobilized peripheral blood (AllCells) were thawed into StemSpan Serum-Free Expansion Medium (SFEM™, StemCell Technologies) containing 100 ng/mL each of the following cytokines: human stem cell factor (SCF), thrombopoietin (TPO), and flt-3 ligand (FL) (all from Peprotech). Cells were grown for 3 days in a humidified incubator and 5% CO2 20% O2. […] The published use of UM171 involved prolonged exposure of HSCs to the small molecule for ex vivo expansion of HSCs. In the current experiment, HSCs were exposed to UM171 for 2 hours before and 24 hours after delivery of Cas9 and gRNA plasmid DNA. This UM171 treatment protocol was based on pilot studies performed by the inventors that indicated acute pre-treatment with UM171 before lentivirus vector mediated gene delivery improved HSC viability compared to HSCs treated with vehicle (dimethylsulfoxide, DMSO, Sigma) alone. After the 2-hour pretreatment with UM171, 1 million […] HSCs were Nucleofected™ with the Amaxa™ 4D Nucleofector™ device (Lonza), Program EO100 using components of the P3 Primary Cell 4D-Nucleofector Kit™ (Lonza) according to the manufacturer's instructions. […]

The test system is the same in series [3]. The experiment in a line: Viability by 7-AAD / Annexin-V flow cytometry 96 hours after Nucleofection. The note with it: Nucleofected with Cas9 and CCR5 gRNA plasmids after pre-treatment with UM171; 96 hours. Type of series: cell-based. The procedure: as §1

On to “GCUGCCGCCCAGUGGGACUU (chemistry not given here) [CCR5-U43, S. pyogenes gRNA targeting CCR5; delivered as U6-promoter plasmid with Cas9 plasmid]”, for which, in series [1], the “Fold change in cell number of CD34^+ cells (96 hours vs. time 0 cell number)” value is 0.6. In the series on CD34^+ HSCs, the “Number of colony forming units: E” value was 18 colony forming units per 1500 CD34^+ HSCs plated, the “Number of colony forming units: G” value is 22 colony forming units per 1500 CD34^+ HSCs plated, the “Number of colony forming units: GEMM” value is listed as 1 colony forming units per 1500 CD34^+ HSCs plated and the “Number of colony forming units: GM” value was 1 colony forming units per 1500 CD34^+ HSCs plated. Further, in the series on CD34^+ HSCs, the “Number of colony forming units: M” value was 6 colony forming units per 1500 CD34^+ HSCs plated and the “Number of colony forming units: Total” value is recorded as 28 colony forming units per 1500 CD34^+ HSCs plated. Besides, in series [2], the “co-expression of CD34 and CD90” value was “maintained co-expression of CD34 and CD90”. Moreover, the “viability (7-AAD^− AnnexinV^-)” value in series [3] is listed as > 93%.
